The text below walks through data of patent US20220062440A1, “OLIGOMER-SELECTIVE FLUORESCENT INDICATOR DYES” (University of South Florida, priority 2018, published 2022).

Entries after “also recorded” stand apart in the source; their conditions may differ. Like-named read-outs stand apart in the source and are kept apart here.

Assay [1] deals with amyloid aggregates (gO/CF and RF). As to conditions: cited from earlier work; for Response to gO/CF vs. RF aggregates (selectivity): literature / background statement.
Assay [2] deals with T1, hen egg-white lysozyme (hewL) amyloid aggregates: gO/CFs vs. RFs (Gallus gallus, UniProt P00698).
T1 construct: hen egg-white lysozyme (hewL); from tissue
Kind of assay: Kinetic dye screening assay: dye fluorescence response during sigmoidal vs. biphasic amyloid assembly, ThT as reference. It counts as binding. As to conditions: for Fluorescence response to initial gO/CF (oligomer) phase of biphasic growth / Fluorescence response to RF nucleation and growth: hewL, pH 2, 52° C.; for Fluorescence response to initial gO/CF (oligomer) phase of biphasic growth: above COC (biphasic regime); for Fluorescence response to RF nucleation and growth: second phase of biphasic growth or sigmoidal growth; for Oligomer (gO/CF) selectivity over fibrils: hewL amyloid assembly, sigmoidal vs. biphasic kinetics. The source says:
A kinetic assay that clearly delineates growth conditions dominated by gO/CF or RF formation as simple function of protein concentration was developed. This kinetic assay was used in conjunction with high-resolution (AFM or TEM) imaging of aggregate morphologies to identify dyes that display well-defined selectivity of gO/CFs over RFs (FIGS. 1A-1E).
The basis of the kinetic assay is the existence of a “critical oligomer concentration” or COC, distinct from and higher than the protein concentration required for fibril growth [Tatiana Miti, et al. Biomacromolecules (2015) 16:326-335]. Using both hen-egg white lysozyme and a dimeric Aβ construct, it was shown that crossing this COC causes a sharp transition in ThT kinetics from the ubiquitous “sigmoidal” growth kinetics of nucleated polymerization to lag-free bimodal kinetics. The initial phase of bimodal growth is dominated by gO/CF formation while the secondary upswing indicates RF nucleation and growth [Filip Hasecke, et al. Chem. Sci. (2018) 9: 5937-5948]. When below this COC HEWL grows RFS aggregates with a distinct lag phase before the start of growth. Monitoring dye responses both below and above the COC allows rapid determination whether a given fluorescent dye responds only to the initial gO/CF or subsequent RF phase of amyloid growth.
Kinetic transition is an indicator of oligomer formation (Hasecke F. et al., Chem. Sci., 2018 9:5937-5948). The onset of gO/CF formation is delineated by a threshold protein concentration referred to herein as the “critical oligomer concentration” or COC. […] No populations of gO/CFs are observed. In contrast, gO/CF formation above the COC has no lag periods and results in biphasic kinetics (saturating gO/CF kinetics is superimposed to sigmodal RF kinetics). AFM confirms that the initial phase represents gO/CF formation while the second phase indicates RF nucleation and growth. Using this transition from sigmoidal to biphasic kinetics provides an efficient assay for screening dyes for their response to these distinct aggregate species.
Instead of requiring isolation and stabilization of amyloid oligomers, the dye screening protocol proposed here takes the identification of two distinct amyloid assembly regimes with distinctly different assembly kinetics (see FIG. 6 and Hasecke, F., et al. Chemical Science, 2018. 9:5937-5948). […] Following the initial lag phase, this regime yields pure populations of “traditional” rigid fibrils (RFs). It lacks any detectable populations of metastable globular oligomers (gOs) or curvilinear fibrils (CFs) during any stage of fibril assembly. Upon crossing a threshold protein (or salt) concentration a second, oligomer-dominated regime emerges. This regime is characterized by lag-free formation of readily detectable populations of gOs and CFs during its initial phase, with RFs emerging in a second growth phase. The transition to this regime is characterized by a concurrent switch in ThT-monitored assembly kinetics from sigmoidal to biphasic kinetics (Hasecke, F., et al. Chemical Science, 2018. 9:5937-5948; Miti, T., et al. Biomacromolecules, 2015. 16:326-335; Foley, J., et al. J Chem Phys., 2013. 139:121901; Hill, S. E., et al. PLoS ONE, 2011. 6:e18171). Monitoring fluorescence responses of dyes to amyloid assembly under either sigmoidal or biphasic growth conditions provides a direct and straight-forward readout for their selectivity to oligomer over fibril formation.
Using the above transition in the model amyloid hewL a small subset of about one dozen dyes were screened for oligomer-selective responses. Oligomer-free sigmoidal kinetics provided the read-out for dye responses to pure fibril formation—relative to the ThT response recorded under the same conditions. Responsiveness of dyes to gO/CF formation was evaluated during the initial gO/CF phase of biphasic kinetics, as long as it was well separated from the second RF-related upswing. […]

The target in assay [3] is T2, hen egg-white lysozyme (hewL) amyloid aggregates (Gallus gallus, UniProt P00698).
T2 construct: hen egg-white lysozyme (hewL); from tissue
In words: AFM imaging of hewL aggregate morphologies during biphasic growth in the presence of dye. As to conditions: 5 mg/ml hewL, pH 2, 52° C., CV 5 μM, listed as CV. An excerpt: FIG. 8B contains AFM images from aliquots taken during biphasic amyloid growth in FIG. 8A from the CV wells at the indicated time points. […] This kinetic assay was used in conjunction with high-resolution (AFM or TEM) imaging of aggregate morphologies to identify dyes that display well-defined selectivity of gO/CFs over RFs (FIGS. 1A-1E). Using the above transition in the model amyloid hewL a small subset of about one dozen dyes were screened for oligomer-selective responses. Oligomer-free sigmoidal kinetics provided the read-out for dye responses to pure fibril formation—relative to the ThT response recorded under the same conditions. Responsiveness of dyes to gO/CF formation was evaluated during the initial gO/CF phase of biphasic kinetics, as long as it was well separated from the second RF-related upswing. Even this very limited and fairly arbitrary set of dyes yielded three different dyes with a modest level of oligomer-specific responses (FIG. 7). While encouraging, the level of oligomer selectivity, the overall fluorescence change upon either fibril or oligomer formation, or the rapid bleaching of the dyes under these growth conditions didn't warrant further investigation. […] It confirms that the progression of hewL aggregates during biphasic growth is not altered by the presence of CV.

T1 sequence (P00698 19-147): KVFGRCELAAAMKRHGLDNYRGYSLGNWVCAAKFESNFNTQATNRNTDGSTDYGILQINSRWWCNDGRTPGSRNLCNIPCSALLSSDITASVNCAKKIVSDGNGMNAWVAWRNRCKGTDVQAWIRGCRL
T2 sequence (P00698 19-147): as above

For `N#CC(C#N)=Cc1cc2c3c(c1)CCCN3CCC2` [DCVJ, 9-(Dicyanovinyl) Julolidine], the “Response to gO/CF vs. RF aggregates (selectivity)” value (from here on “Response … (selectivity)”) in assay [1] is recorded as “some oligomer selectivity”.
On to `N#CC(C#N)=Cc1ccc(-c2ccc(-c3ccc(O)cc3)s2)s1` [NIAD-4], for which, in assay [1], the “Response … (selectivity)” value was “preferentially respond to late stage RFs instead of gOs and CFs”.
Turning to `Cc1ccc2c(c1)sc(-c1ccc(N(C)C)cc1)[n+]2C.[Cl-]` [ThT, reference compound], the “Fluorescence response to initial gO/CF (oligomer) phase of biphasic growth” value (“Fluorescence response to initial gO/CF” for short) in assay [2] was “robust response to the initial gO/CF dominated phase; also recorded: expected biphasic behavior as the sample grows gO/CFs up to a first plateau; also recorded: weak biphasic response; also recorded: identical response to amyloid growth prior to the onset of RF formation”. In assay [2], the “Fluorescence response to RF nucleation and growth” value was “readily picked up; also recorded: second upswing and plateau indicating the onset of RF nucleation and growth; also recorded: continues to rise following RF nucleation”. Also, the “Response … (selectivity)” value was “responds to both gO/CF and RF aggregates, albeit with different sensitivities; also recorded: highly skewed towards late-stage amyloid fibrils” in assay [1]; “considerably less enhanced by gO/CF vs. RF formation” in assay [1] (listed as Thioflavin T); “preferentially respond to late stage RFs instead of gOs and CFs” in assay [1] (listed as thioflavin T).
As for `O=C(O)c1cc(/C=C/c2ccc(/C=C/c3ccc(O)c(C(=O)O)c3)cc2)ccc1O` [X-34, reference compound], the “Oligomer (gO/CF) selectivity over fibrils” value (from here on “Oligomer (gO/CF) selectivity”) in assay [2] is on record as “(weak) select responses to oligomer-dominated phase”.
On the same count and under the same terms, to `CC1=C/C(=C(\c2ccc(N)c(S(=O)(=O)[O-])c2)c2ccc(N)c(S(=O)(=O)O)c2)C=C(S(=O)(=O)[O-])C1=N.[Na+].[Na+]` [acid fuchsin, reference compound] belongs “(weak) select responses to oligomer-dominated phase”.
Regarding `CN(C)c1ccc2cc3ccc(N(C)C)cc3nc2c1` [acridine orange, reference compound], the “Oligomer (gO/CF) selectivity” value in assay [2] is given as “(weak) select responses to oligomer-dominated phase”.
Regarding `Nc1c(/N=N/c2ccc(-c3ccc(/N=N/c4cc(S(=O)(=O)O)c5ccccc5c4N)cc3)cc2)cc(S(=O)(=O)O)c2ccccc12` [congo red], in assay [1], the “Response … (selectivity)” value was “preferentially respond to late stage RFs instead of gOs and CFs”.
In the case of `CN(C)c1ccc(C(=C2C=CC(=[N+](C)C)C=C2)c2ccc(N(C)C)cc2)cc1` [crystal violet, tris(4-(dimethylamino)phenyl)methylium chloride], in assay [2], the “Oligomer (gO/CF) selectivity” value was “oligomer-selective dye and noticeable oligomer selectivity and OSD and preferentially enhanced upon binding to gO/CFs”; the “Fluorescence response to initial gO/CF” value is “responds nearly exclusively to the initial (oligomer) phase; also recorded: identical response to amyloid growth prior to the onset of RF formation”; the “Fluorescence response to RF nucleation and growth” value was “weak fibril response; also recorded: little or no response to the onset of RF formation; also recorded: level off”. In assay [2] (listed as CV), the “Fluorescence response to initial gO/CF” value was “robust response to the initial gO/CF dominated phase”; the “Fluorescence response to RF nucleation and growth” value is “lacks the upswing to subsequent RF nucleation and growth; also recorded: weak response to RF formation”. Besides, in assay [2] (listed as Crystal violet), the “Fluorescence response to initial gO/CF” value is reported as “closely match the kinetics of the initial gO/CF phase in ThT kinetics”; the “Fluorescence response to RF nucleation and growth” value was “very weak responses upon the onset of RF formation”. Also, the “Temporal correlation of dye signal with ThT signal” value in assay [2] (sigmoidal and initial phase of biphasic growth of hewL) is “one-to-one temporal correlation”. Moreover, the “Effect of dye on aggregate types / progression of aggregates (AFM)” value in assay [3] is “not altered; also recorded: did not alter the types of aggregates observed”. Moreover, the Amyloid staining entry in assay [1] (literature (Cooper 1969)) is reported as “weak metachromatic amyloid stain”.
Regarding methyl violet, the “Oligomer (gO/CF) selectivity” value in assay [2] is “noticeable oligomer selectivity”.
